Patent US20190185544A1, “COMPOSITIONS AND METHODS OF MODULATING ABETA PROTEIN” (University of South Florida, priority 2016, published 2019)
Entries after “also recorded” stand apart in the source; their conditions may differ.

Tests used:
Type in all cases: cell-based, Chinese hamster
p44/42 MAPK = p44/42 MAPK phosphorylation in CHO/APPwt cell lysates (WB); settings: peptides 10 μM or apoE 10 μg/mL, 0 to 180 min
CHO/APPdE1 cells = assay: Aβ production in CHO cells expressing APP695 lacking the N-terminal E1 region; settings: peptides 10 μM or apoE 10 μg/mL, 4 h; compared with CHO/APPwt
From the text: CHO cells were also transfected with pCMV6 APP695 or pCMV6 E1 depleted APP695, yielding cells expressing wild type APP695 (CHO/APPwt) or truncated APP695 lacking the N-terminal E1 region (CHO/APPdE1). […] Diagram indicates important domains identified in APP, including N-terminal E1 region (top panel), and APPwt and APPdE1 proteins in cell lysates and conditioned media derived from the transfected CHO cells as determined by WB using 6E10 (middle panels). […] ELISA results are representative of three independent experiments with each condition triplicated and presented as mean±s.d. of Aβs (μg/mg of total intracellular protein). Asterisk indicates P<0.05 compared with the corresponding absence of 22C11, 6H3B5 or 6KApoEp, or with corresponding CHO/APPwt cells, as determined by one-way ANOVA.
Therefore, apoE and ApoEp mediates and 6KApoEp reduces Aβ production by binding to the N-terminal E1 region of APP, but this region of APP is not required for spontaneous Aβ release in the absence of apoE.

p38 MAPK = p38 MAPK phosphorylation in CHO/APPwt cell lysates (WB); settings: peptides 10 μM or apoE 10 μg/mL, 0 to 180 min
CHO/APPwt cells = assay: Aβ production in CHO/APPwt cells, treatment alone (Aβ1-40, 42 ELISA, 82E1 WB); settings: for Aβ production (Aβ1-40, 42): serum-free medium, 2 h (ELISA) or 16 h (WB)
Method: Chinese hamster ovary (CHO) cells overexpressing human wild-type amyloid precursor protein (APPwt) (CHO/APPwt cells) were cultured in 96-well plate at about 2×10^4/well in Dulbecco's modified Eagle's medium (DMEM) with 10% fetal bovine serum (FBS), 1 mM sodium pyruvate and 100 U/mL of penicillin/streptomycin for 18 hours.
CHO/APPwt cells were cultured in 96-well plate (about 2×10^4/well) in serum-free medium and treated with ApoE LDLR, FlagApoE LDLR (SEQ ID NO.: 1 with an N-terminal FLAG tag), BiotinApo LDLR (SEQ ID NO.: 1 with an N-terminal Biotin) and 3 lysinesApoE LDLR (3KApoE LDLR (SEQ ID NO.: 2)) at indicated doses for about 2 hours.
The conditioned media and cell lysates were prepared, and subjected to Aβ ELISA and protein assay.
CHO cells overexpressing human wild-type APP (CHO/APPwt) cells were cultured in 96-well plate at 2×10^4/well in Dulbecco's modified Eagle's medium (DMEM) with 10% fetal bovine serum (FBS), 1 mM sodium pyruvate and 100 U/mL of penicillin/streptomycin for 18 hours. […] 82E1 WB analyses as shown below the Aβ ELISA result histograms. The Aβ ELISA results are representative of three independent experiments with each condition triplicated and presented as mean±SD.
(residues 133-152, SEQ ID NO: 1)] as indicated for 2 and 16 hours (h). The conditioned media and cell lysates were analyzed by Aβ1-40, 42 ELISA (FIG. 10A), 82E1 WB analysis (FIG. 10B) and protein assay, respectively. In addition, (FIG. 10C) CHO/APPwt cells were cultured in 96-well plate (2×10^4/well) in serum-free DMEM and treated with FlagApoE-LBDP, BiotinApoE-LBDP and 3 lysineApoE-LBDP (3KApoE-LBDP) in comparing to ApoE-LBDP at indicated doses for 2 hours (h). […] (SEQ ID NO: 2); […]-[…] (SEQ ID NO: 10); Biotin-[…] (SEQ ID NO: 1 with an N-Terminal Biotin).
CHO cells engineered to express human wild-type APP (CHO/APPwt) or Swedish mutant APP (CHO/APPswe) were obtained. These cells were cultured in 96 or 24 well plates at 4×10^4 or 2×10^5 cells/well, respectively, in Dulbecco's modified Eagle's medium (DMEM) with 10% fetal bovine serum, 1 mM sodium pyruvate and 100 U/mL of penicillin/streptomycin (Invitrogen, Thermo Fisher Scientific). In addition, murine N2a cells transfected with APPwt (N2a/APPwt were obtained), SH-SY5Y cells transfected with APPswe and wild-type SH-SY5Y cells (ATCC, Manassas, Va.) were cultured as previously described^42. Primary hN2TM human neurons (Neuromics, Edina, Minn.) were cultured in hN2TM human neuron culture media and primary HCN2 human neurons (ATCC) were cultured in DMEM with 4 mM L-glutamine adjusted to contain 1.5 g/L sodium bicarbonate, 4.5 g/L glucose, fetal bovine serum (10%).
Aβ1-40, 42 and sAPPα from cell and brain homogenates were detected by Aβ1-40, 42 and sAPPα ELISA kits (IBL-America), strictly following the manufacturer's instructions^43,44.
WB analyses were performed as previously described^43,44. Briefly, 10% bicine/tris gel containing 8 M urea was used for separation of Aβ1-40, 42 species from brain homogenates or CHO cell conditioned media or lysates, followed by transfer to 0.2 μm pore-size nitrocellulose membrane (Bio-Rad, Hercules, Calif.). The membrane was boiled in PBS for 3 to 5 min before blocking to enhance sensitivity and then incubated with 82E1. For all other proteins detected by WB, 10% tris-SDS gels were used. Densitometry analysis was performed as previously described using a FluorS Multiimager with Quantity One™ software 43.

Substance	p44/42 MAPK phosphorylation (p44/42 MAPK)	Aβ production in CHO/APPdE1 cells (CHO/APPdE1 cells)	p38 MAPK phosphorylation (p38 MAPK)	sAPPα secretion (CHO/APPwt cells)	Aβ production (Aβ1-40, 42) (CHO/APPwt cells)
ApoE3: human recombinant apolipoprotein E3 protein (BioVision)	activated both p44/42 and p38 MAPK phosphorylation	markedly less Aβ production compared with CHO/APPwt cells	activated both p44/42 and p38 MAPK phosphorylation	decreased sAPPα secretion	markedly promote amyloid β protein (Aβ) production
ApoE4: human recombinant apolipoprotein E4 protein (BioVision)	activated both p44/42 and p38 MAPK phosphorylation	markedly less Aβ production compared with CHO/APPwt cells	activated both p44/42 and p38 MAPK phosphorylation	decreased sAPPα secretion	increased Aβ1-40, 42 production; also recorded: markedly promote amyloid β protein (Aβ) production
